Reference: patent US20100143500A1, “Methods and Compositions for Inhibiting GSK-3 In Glial Cell Related Disorders” (THE OHIO STATE UNIVERSITY RESEARCH FOUNDATION, priority 2006, published 2010)

What was measured:
glioma cells = assay: propidium iodide exclusion and metabolic cell viability assays; format: cell-based; conditions: under conditions that block cell motility
[1] = tested on: U87 glioma cell spheroids; assay: U87 glioma spheroid invasion in collagen I matrix
Description: U87 control spheroid after 96 hours expansion in type I collagen with 20 mM NaCl.
Time course of U87 spheroid invasion, in the presence of increasing concentrations of LiCl. Measurements were taken daily over a period of four days.
Time course of spheroid expansion with 20 mM LiCl washed out from U87 spheres at 24 hour intervals. Subsequent expansion was monitored microscopically.
To investigate the role of GSK-3 in glioma invasion, experiments were carried out to examine the effects of lithium chloride (LiCl), a known inhibitor of GSK-3, on the invasion of U87 glioma cell spheroids embedded in a collagen I matrix.

[2] = tested on: three additional glioma cell lines and two human glioblastoma biopsies (X12 and X14)
Description: Spheroids from 6 glioma cell lines were grown in the presence of LiCl (10 mM or 20 mM).
Cell lines and chemicals. The U87 and U87ΔEGFR cell lines were provided by Dr. Webster Cavenee (Ludwig Institute for Cancer Research, La Jolla, Calif.). The human glioblastoma biopsies, X12 and X14 (from Dr. C. David James, Mayo Clinic, Rochester, Minn.), were maintained as flank tumors in nude mice as described (5). All cells were grown in DMEM with 10% FBS and 1% penicillin-streptomycin.

[3] = target: T1, inositol monophosphatase (IMP) (Homo sapiens, UniProt P29218); conditions: cited from earlier work
T1 sequence (P29218 1-277): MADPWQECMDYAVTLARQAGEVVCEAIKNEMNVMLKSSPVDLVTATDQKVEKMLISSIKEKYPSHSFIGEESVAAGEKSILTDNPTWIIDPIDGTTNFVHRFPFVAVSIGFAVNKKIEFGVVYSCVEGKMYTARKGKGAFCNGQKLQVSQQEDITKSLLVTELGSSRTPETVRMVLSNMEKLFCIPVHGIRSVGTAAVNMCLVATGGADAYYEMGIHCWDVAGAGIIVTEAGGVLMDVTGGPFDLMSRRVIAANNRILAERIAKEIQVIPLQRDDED

In the case of COc1ccc(CNC(=O)Nc2ncc([N+](=O)[O-])s2)cc1 [AR-A014418], the cytotoxicity (glioma cells) is reported as “Minimal cytotoxicity”, the “spheroid expansion as a percentage of control spheres” value ([1]; U87 cells, 96 hours) is reported as “dose dependent decrease in spheroid expansion” and the “invasion of glioma spheroids” value ([1]; U87 spheroids embedded in collagen I matrix) is reported as “dose-dependent blockade of invasion”. For the same molecule, the “reversibility of the invasion blockade” value ([1]; after removal of inhibitor, assay up to 96 hours) was “reversible”, the “spheroid expansion as a percentage of control spheres” value ([2]; X12 cells, 96 hours) was “dose dependent decrease in spheroid expansion” and the “spheroid invasion in further glioma cell lines and biopsies” value ([2]; panel of glioma cell lines, X12 and X14) was “observed in the full panel of cell lines”.

In the case of CC(Oc1ccc(O)cc1)(P(=O)(O)O)P(=O)(O)O [L-690, 330], the “potency as IMP inhibitor relative to lithium” value [3] is given as 1000 fold and the effect on invasion ([1]; concentrations as high as 400 μM) is given as “no effect on invasion”.

In the case of O=C1NC(=O)C(c2ccccc2[N+](=O)[O-])=C1Nc1ccc(O)c(Cl)c1 [SB415286], the cytotoxicity (glioma cells) is reported as “Minimal cytotoxicity”.
